In patent publication US20090048205A1, “COMBINATION THERAPY WITH SYNTHETIC TRITERPENOIDS AND GEMCITABINE” (priority 2007, published 2009):

What was measured:
heme oxygenase-1 (HO-1) = settings: at nanomolar concentrations; in vitro and in vivo; Liby et al. (2005); cited from earlier work
IKKb = target: T1, IKKb (Homo sapiens, UniProt O14920); settings: via binding to Cys179; cited from earlier work
T1 sequence (O14920 1-756): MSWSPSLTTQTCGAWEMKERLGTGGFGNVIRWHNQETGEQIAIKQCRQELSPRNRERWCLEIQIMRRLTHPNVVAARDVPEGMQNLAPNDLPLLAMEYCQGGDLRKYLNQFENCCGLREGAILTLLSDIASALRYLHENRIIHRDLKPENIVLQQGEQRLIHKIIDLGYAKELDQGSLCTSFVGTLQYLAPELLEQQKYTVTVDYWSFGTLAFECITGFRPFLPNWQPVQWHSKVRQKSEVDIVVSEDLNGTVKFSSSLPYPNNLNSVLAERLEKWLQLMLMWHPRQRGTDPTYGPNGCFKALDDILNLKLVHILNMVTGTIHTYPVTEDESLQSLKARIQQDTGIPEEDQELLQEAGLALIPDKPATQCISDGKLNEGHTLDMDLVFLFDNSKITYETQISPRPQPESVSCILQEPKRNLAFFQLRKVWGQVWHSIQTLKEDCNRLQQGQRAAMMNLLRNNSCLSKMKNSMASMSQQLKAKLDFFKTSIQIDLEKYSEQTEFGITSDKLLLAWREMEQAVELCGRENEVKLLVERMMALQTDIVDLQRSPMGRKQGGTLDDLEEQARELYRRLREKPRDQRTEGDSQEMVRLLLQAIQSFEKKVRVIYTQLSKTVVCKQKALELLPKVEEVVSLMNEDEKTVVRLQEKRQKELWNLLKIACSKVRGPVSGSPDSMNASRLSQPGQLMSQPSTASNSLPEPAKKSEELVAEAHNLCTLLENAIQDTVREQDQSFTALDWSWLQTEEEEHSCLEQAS

NF-κB = settings: human leukemia cell lines and patient samples; Shishodia et al. (2006); cited from earlier work
[1] = monkeys, equivalent dosages orally in gelatin capsules; Form B versus Form A
[2] = cited from earlier work
[3] = tested on: Stage IV pancreatic cancer; settings: compared with the combination; cited from earlier work
[4] = mice; cited from earlier work

SMILES: CC1(C)CC[C@]2(C(=O)O)CC[C@]3(C)[C@H](C(=O)C=C4[C@@]5(C)C=C(C#N)C(=O)C(C)(C)[C@@H]5CC[C@]43C)[C@@H]2C1 [CDDO, 2-cyano-3,12-dioxooleana-1,9(11)-dien-28-oic acid]
- Expression of heme oxygenase-1 (HO-1) enzyme (heme oxygenase-1 (HO-1)): rapidly increase the expression

SMILES: CC1(C)CC[C@]2(C(=O)n3ccnc3)CC[C@]3(C)[C@H](C(=O)C=C4[C@@]5(C)C=C(C#N)C(=O)C(C)(C)[C@@H]5CC[C@]43C)[C@@H]2C1 [CDDO-Im]
- Inhibition of IKKb activity (IKKb): direct inhibitors
- Expression of heme oxygenase-1 (HO-1) enzyme (heme oxygenase-1 (HO-1)): rapidly increase the expression

SMILES: COC(=O)[C@]12CCC(C)(C)CC1C1C(=O)C=C3[C@@]4(C)C=C(C#N)C(=O)C(C)(C)[C@@H]4CC[C@@]3(C)[C@]1(C)CC2 (stereo partly shown) [CDDO-Me]
- Inhibition of IKKb activity (IKKb): direct inhibitors
- Inhibition of constitutive and inducible NF-κB (NF-κB): potently inhibits

SMILES: COC(=O)[C@]12CCC(C)(C)C[C@H]1[C@H]1C(=O)C=C3[C@@]4(C)C=C(C#N)C(=O)C(C)(C)[C@@H]4CC[C@@]3(C)[C@]1(C)CC2 [Form B]
- Bioavailability [1]: surprisingly better than that of Form A

SMILES: Nc1ccn([C@@H]2O[C@H](CO)[C@@H](O)C2(F)F)c(=O)n1 [gemcitabine, 2′,2′-difluoro-2′-deoxycytidine]
- Maximum administered dose ([2]; humans): 1000 mg/m^2
- Dose reported to be tolerated in patients ([2]; prolonged infusion for up to 12 hours): 10 mg/m^2/min
- Clinical activity of gemcitabine alone (historical) [3]: has not produced this level of clinical activity
- Maximum tolerated dose [4]: 300 mg/kg/dose
